21 molecules from ChEMBL document CHEMBL4334438, “Discovery of novel glycogen synthase kinase-3α inhibitors: Structure-based virtual screening, preliminary SAR and biological evaluation for treatment of acute myeloid leukemia” (Eur J Med Chem, 2019) can be followed below.

Structures are written as SMILES. Calls of active or inactive are those of the source. The calls are words filed in the database; no cut-off is given here.

In data set [1] the test system is Glycogen synthase kinase-3 alpha (Homo sapiens), P49840 [UNDEFINED MUTATION]. Kind of data set: Inhibition of human GSK-3alpha S449A mutant (2 to end residues) at 10 uM using phospho GS2 peptide as substrate after 40 mins in presence of [gamma-33ATP] by scintillation counting method relative to control.
Sequence of Glycogen synthase kinase-3 alpha (Homo sapiens), P49840 [UNDEFINED MUTATION] (P49840 whole entry, looked up, stated change not applied, the tested form may be a part): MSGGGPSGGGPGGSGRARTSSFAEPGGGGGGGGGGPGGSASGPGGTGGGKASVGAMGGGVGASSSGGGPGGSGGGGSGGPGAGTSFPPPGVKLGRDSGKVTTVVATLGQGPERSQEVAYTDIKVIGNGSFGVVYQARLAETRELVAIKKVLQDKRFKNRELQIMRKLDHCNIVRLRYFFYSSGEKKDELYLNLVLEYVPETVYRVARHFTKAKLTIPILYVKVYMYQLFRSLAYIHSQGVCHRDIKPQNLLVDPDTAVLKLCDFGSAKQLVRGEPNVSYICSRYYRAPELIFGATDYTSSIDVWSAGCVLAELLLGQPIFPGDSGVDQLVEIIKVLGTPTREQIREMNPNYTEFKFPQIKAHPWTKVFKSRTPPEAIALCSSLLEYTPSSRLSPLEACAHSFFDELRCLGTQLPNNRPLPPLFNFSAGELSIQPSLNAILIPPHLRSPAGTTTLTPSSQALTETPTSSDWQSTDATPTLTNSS
Data set [2] has as its target GSK-3beta (H350L mutant) (Homo sapiens, UniProt P49841, H350L). Briefly: Inhibition of human GSK-3beta H350L mutant (2 to end residues) at 10 uM using phospho GS2 peptide as substrate after 40 mins by [gamma-33ATP] radiometric assay relative to control. The settings on record: human GSK-3beta H350L mutant enzyme (residues 2 to end), probe phospho GS2 peptide.
Data set [3] has as its target Glycogen synthase kinase-3 beta (Homo sapiens, UniProt P49841, H350L). Kind of data set: Inhibition of human GSK-3beta H350L mutant (2 to end residues) at 10 uM using phospho GS2 peptide as substrate after 40 mins by [gamma-33ATP] radiometric assay.
In data set [4] the target is T1, Glycogen synthase kinase-3 alpha (Homo sapiens, UniProt P49840). Kind of data set: Inhibition of human GSK-3alpha S449A mutant (2 to end residues) using phospho GS2 peptide as substrate after 40 mins in presence of [gamma-33ATP] by scintillation counting method.
T1 sequence (P49840 whole entry): as the sequence (P49840 whole entry, looked up, stated change not applied, the tested form may be a part) above
Data set [5] in a line: Activation of wnt/beta-catenin signalling pathway in human NB4 cells assessed as stabilization of beta-catenin at 30 uM after 24 hrs by Western blot analysis. Format: cell-based. For orientation: A western blot detects proteins with antibodies after separation by electrophoresis.
In data set [6] the target is T2, Glycogen synthase kinase-3 beta (Homo sapiens, UniProt P49841). Briefly: Inhibition of human GSK-3beta using YRRAAVPPSPSLSRHSSPHQ(pS)EDEEE as substrate measured in presence of [gamma-33P]ATP by radiometric assay.
T2 sequence (P49841 whole entry): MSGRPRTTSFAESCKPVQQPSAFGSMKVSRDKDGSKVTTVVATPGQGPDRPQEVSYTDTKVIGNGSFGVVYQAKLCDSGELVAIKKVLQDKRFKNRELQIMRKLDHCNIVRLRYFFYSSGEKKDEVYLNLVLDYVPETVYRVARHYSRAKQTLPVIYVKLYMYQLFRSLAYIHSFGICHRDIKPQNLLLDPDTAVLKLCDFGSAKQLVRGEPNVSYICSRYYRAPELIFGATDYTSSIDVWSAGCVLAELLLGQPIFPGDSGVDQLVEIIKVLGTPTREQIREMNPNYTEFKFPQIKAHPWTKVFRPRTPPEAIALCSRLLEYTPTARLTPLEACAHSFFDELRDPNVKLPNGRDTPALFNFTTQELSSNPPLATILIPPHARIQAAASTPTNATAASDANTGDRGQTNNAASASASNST
Data set [7] deals with HL-60. Kind of data set: Induction of monocytic differentiation in human HL60 cells assessed as increase in CD11b-APC-Cy7 positive cells at 30 uM after 6 days by flow cytometry analysis. Type of data set: functional, cell-based.
In data set [8] the test system is HL-60. Kind of data set: Induction of monocytic differentiation in human HL60 monocytic assessed as increase in CD11c-APC positive cells at 30 uM after 6 days by flow cytometry analysis. Format: functional, cell-based. On the technique in general: In flow cytometry, cells or beads pass a laser one at a time.
In data set [9] the test system is NB-4. Kind of data set: Induction of monocytic differentiation in human NB4 cells assessed as increase in CD11c-APC positive cells at 30 uM after 6 days by flow cytometry analysis. Type of data set: functional, cell-based.
For data set [10], the system named is HL-60. Kind of data set: Antiproliferative activity against human HL60 cells assessed as reduction in viability at 1 to 30 uM after 3 days by SRB assay. Format: functional, cell-based. (The SRB assay estimates cell density from bound dye.)
Data set [11] deals with HL-60. Briefly: Induction of monocytic differentiation in human HL60 cells assessed as increase in CD14-FITC positive cells at 30 uM after 6 days by flow cytometry analysis. Format: functional, cell-based.
Data set [12] has as its system NB-4. Kind of data set: Induction of monocytic differentiation in human NB4 cells assessed as increase in CD11b-APC-Cy7 positive cells at 30 uM after 6 days by flow cytometry analysis. Type of data set: functional, cell-based.
In data set [13] the test system is NB-4. Briefly: Induction of monocytic differentiation in human NB4 cells assessed as increase in CD14 positive cells at 30 uM after 6 days by FITC staining based flow cytometry analysis. Type of data set: functional, cell-based.
In data set [14] the target is T1, Glycogen synthase kinase-3 alpha. Kind of data set: Inhibition of human GSK-3alpha using YRRAAVPPSPSLSRHSSPHQ(pS)EDEEE as substrate measured in presence of [gamma-33P]ATP by radiometric assay.
Data set [15] in a line: Activation of wnt/beta-catenin signalling pathway in human HL60 cells assessed as stabilization of beta-catenin at 30 uM after 24 hrs by Western blot analysis. Type of data set: cell-based.
Data set [16] deals with NB-4. Briefly: Antiproliferative activity against human NB4 cells assessed as reduction in viability at 1 to 30 uM after 3 days by SRB assay. Type of data set: functional, cell-based.
For data set [17], the species on record is Homo sapiens. Briefly: Selectivity index, ratio of IC50 for inhibition of human GSK-3beta H350L mutant (2 to end residues) to IC50 for inhibition of human GSK-3alpha S449A mutant (2 to end residues).
Data set [18] has as its target T2, Glycogen synthase kinase-3 beta. Briefly: Inhibition of human GSK-3beta by mobility shift micro-fluidic assay.
Data set [19] deals with HL-60. Kind of data set: Induction of granulocytic differentiation in human HL60 cells assessed as increase in CD11b-APC-Cy7 positive cells at 10 to 30 uM after 6 days by flow cytometry analysis. Type of data set: functional, cell-based.
The subject of data set [20] is HL-60. Kind of data set: Inhibition of colony formation in human HL60 cells at 30 uM preincubated for 72 hrs followed by compound washout and measured after 7 to 10 days. Type of data set: functional, cell-based.
In data set [21] the test system is NB-4. Kind of data set: Induction of granulocytic differentiation in human NB4 cells assessed as increase in CD11c-APC positive cells at 10 to 30 uM after 6 days by flow cytometry analysis. Type of data set: functional, cell-based.
Data set [22] deals with NB-4. Briefly: Induction of granulocytic differentiation in human NB4 cells assessed as increase in CD11b-APC-Cy7 positive cells at 10 to 30 uM after 6 days by flow cytometry analysis. Format: functional, cell-based.
Data set [23] concerns NB-4. Kind of data set: Inhibition of colony formation in human NB4 cells at 30 uM preincubated for 72 hrs followed by compound washout and measured after 7 to 10 days. Format: functional, cell-based.
Data set [24] deals with HL-60. Briefly: Induction of granulocytic differentiation in human HL60 cells assessed as increase in CD14-FITC positive cells at 10 to 30 uM after 6 days by flow cytometry analysis. Type of data set: functional, cell-based.
The test system of data set [25] is NB-4. Briefly: Induction of granulocytic differentiation in human NB4 cells assessed as increase in CD14 positive cells at 10 to 30 uM after 6 days by FITC staining based flow cytometry analysis. Format: functional, cell-based.
For data set [26], the system named is HL-60. Kind of data set: Induction of granulocytic differentiation in human HL60 granulocytic assessed as increase in CD11c-APC positive cells at 10 to 30 uM after 6 days by flow cytometry analysis. Format: functional, cell-based.

Sequence of Glycogen synthase kinase-3 beta (Homo sapiens, UniProt P49841, H350L) (P49841 whole entry, looked up, stated change not applied): as the sequence (P49841 whole entry) above
Sequence of GSK-3beta (H350L mutant) (P49841 whole entry, looked up, stated change not applied, the tested form may be a part): as the sequence (P49841 whole entry) above

One may read the inhibition as the percentage by which the read-out fell short of the control. What is called IC50 is the midpoint of a concentration-inhibition curve. `O=C1NC(=S)N/C1=C/c1ccc(-c2ccc([N+](=O)[O-])cc2)o1`: the inhibition in data set [1] stood at 88%. The molecule also yielded an inhibition at 40 min, 10 µM in data set [2] of 72%. In addition, the IC50 in [3] worked out at 584 nM; in data set [4], 412 nM.

As to `CCCOC(=O)c1cc(-c2ccc(/C=C3/NC(=S)NC3=O)o2)ccc1Cl`, the inhibition in data set [1] was 88%. The inhibition at 40 min, 10 µM in [2] turned out to be 81%. For the same molecule, the IC50 in data set [3] was 405 nM; in data set [4] it was 159 nM.

With `Cc1ccc(-c2ccc(/C=C3/NC(=S)NC3=O)o2)cc1Cl`, the inhibition in [1] was 76%. Further, in data set [2], the inhibition at 40 min, 10 µM stood at 72%. Also, the IC50 in [3] stood at 1290 nM; in data set [4] it was 904 nM.

`CN1C(=N)NC(=O)/C1=C\c1ccc(-c2ccc(F)cc2)o1`: the inhibition in data set [1] is 81%. In [2], this molecule came in with an inhibition at 40 min, 10 µM of 78%. The 50% inhibitory concentration (IC50) was 1890 nM in [3] and 1340 nM in [4].

Take `c1ccc(-c2noc(CSc3nnc(-c4ccncc4)o3)n2)cc1`: the outcome in data set [5] and in data set [15] was Active. Also, the results for the IC50 in data set [6] and in [14] were 521 nM and 451 nM, respectively. Further, the result in data set [7], in [8], in data set [9], in data set [10], in data set [11] and in data set [12] was Active. Further, the outcome in [13] and in [16] was Active.

With `Cc1c(-c2ccc(/C=C3/SC(=N)NC3=O)o2)ccc([N+](=O)[O-])c1C`, in data set [1], the inhibition was 64%. For the same molecule, the inhibition at 40 min, 10 µM in data set [2] was 66%. The IC50 in data set [3] came to 571 nM; in data set [4], 227 nM.

Consider `N=C1NC(=O)/C(=C\c2ccc(-c3ccc(Cl)c(Cl)c3)o2)S1`, for which the inhibition in data set [1] fell in the range of 80 to 81%. In addition, the inhibition at 40 min, 10 µM in data set [2] came out at 75%. Besides, the IC50 was found to be 576 nM in [3] and 300 nM in data set [4]. Also, in [17], the Ratio IC50 stood at 1.9.

Take `Cc1ccc(-c2ccc(/C=C3/SC(=N)NC3=O)o2)c([N+](=O)[O-])c1`: the inhibition in data set [1] was determined as 85%. Moreover, the inhibition at 40 min, 10 µM in data set [2] amounted to 89%. Further, the IC50 in data set [3] was found to be 320 nM; in data set [4], 162 nM.

On to `Cc1ccc(-c2ccc(/C=C3/NC(=S)NC3=O)o2)c(Br)c1`, for which the inhibition in data set [1] lay in the range of 65 to 90%. This molecule also registered an inhibition at 40 min, 10 µM in data set [2] of 62%. For the same molecule, the values for the IC50 in [3] and in data set [4] were 862 nM and 440 nM, respectively. Moreover, the Ratio IC50 in data set [17] came out at 1.95.

`O=C1NC(=S)N/C1=C/c1ccc(-c2cccc(C(=O)O)c2)o1`: in data set [1], the inhibition stood at 97%. In [2], the inhibition at 40 min, 10 µM turned out to be 96%. Further, the IC50 in [3] came out at 338 nM; in [4], 145 nM.

Take `NC1=NC(=O)/C(=C\c2ccc(-c3ccccc3[N+](=O)[O-])o2)S1`: in data set [1], the inhibition turned out to be 91%. Moreover, the inhibition at 40 min, 10 µM in data set [2] was determined as 82%. Also, the IC50 was determined as 2500 nM in data set [3] and 2800 nM in data set [4].

As for `CC[C@@]1(c2ccccc2)C2=C(CC(C)(C)CC2=O)Nc2n[nH]cc21`, in data set [18], the IC50 was 515 nM.

For the molecule `N=C1NC(=O)/C(=C\c2ccc(-c3cccc(Cl)c3)o2)S1`, in [1], the inhibition was determined as 94%. The inhibition at 40 min, 10 µM in data set [2] stood at 88%. Also, the results for the IC50 in [3] and in data set [4] were 767 nM and 282 nM, respectively.

With `N=C1NC(=O)/C(=C\c2ccc(-c3cc([N+](=O)[O-])ccc3Cl)o2)S1`, the inhibition in data set [1] was 71%. Also, in [2], the inhibition at 40 min, 10 µM is 65%. Further, the concentration for half-maximal inhibition (IC50) in data set [3] came out at 1760 nM; in data set [4], 2680 nM.

Regarding `O=C1NC(=O)C(c2cnc3ccccn23)=C1c1cn2c3c(cc(F)cc13)CN(C(=O)N1CCCCC1)CC2` [LY-2090314], in data set [1], the inhibition worked out at 99%. Also, the inhibition at 40 min, 10 µM in data set [2] worked out at 97%. In addition, the results for the IC50 in data set [3] and in [4] were 1.29 nM and 1.02 nM, respectively.

Consider `N=C1NC(=O)/C(=C\c2ccc(-c3cccc(C(=O)O)c3)o2)S1`, for which, in [1], the inhibition stood at 97%. In data set [2], this molecule returned an inhibition at 40 min, 10 µM of 93%. The concentration for half-maximal inhibition (IC50) in [3] was 308 nM; in data set [4], 207 nM.

As for `O=C1NC(=S)N/C1=C/c1ccc(-c2ccccc2Cl)o1`, in [1], the inhibition is 84%. The inhibition at 40 min, 10 µM in data set [2] was found to be 86%. Further, the figures for the IC50 in data set [3] and in data set [4] were 917 nM and 609 nM, respectively.

Turning to `Cc1ccc(-c2ccc(/C=C3/SC(=N)NC3=O)o2)cc1Cl`, the inhibition in [1] came to 81%. The molecule also returned an inhibition at 40 min, 10 µM in data set [2] of 77%. Besides, the IC50 in [3] is 1430 nM; in data set [4], 301 nM.

As for `CC1=C(/C=C/C(C)=C/C=C/C(C)=C/C(=O)O)C(C)(C)CCC1`, the outcome in [19], in [21], in [10], in data set [22], in [24] and in data set [25] was Active. For the same molecule, the result in data set [26] and in data set [16] was Active. Further, the inhibition result in [20] and in data set [23] was “Active” throughout.

Take `O=C1NC(=S)N/C1=C/c1ccc(-c2ccc(C(=O)O)cc2)o1`: the inhibition in [1] is 97%. The molecule also came in with an inhibition at 40 min, 10 µM in data set [2] of 91%. In addition, the IC50 is 743 nM in data set [3] and 309 nM in [4].

On to `CCCCOC(=O)c1cc(-c2ccc(/C=C3/NC(=S)NC3=O)o2)ccc1Cl`, for which the inhibition in data set [1] came out at 65%. Further, the inhibition at 40 min, 10 µM in data set [2] was found to be 55%. For the same molecule, the values for the 50% inhibitory concentration (IC50) in data set [3] and in data set [4] were 1190 nM and 710 nM, respectively.
